From the NIST ThermoML archive (doi:10.1016/j.jct.2018.11.004)
Numbers after ± are expanded uncertainties.

Test: Molar enthalpy of transition or fusion

Molar enthalpy of transition or fusion (Crystal 1, Adiabatic calorimetry): 3.22 ± 0.0139 kcal/mol | Molar enthalpy of transition or fusion (Crystal 1, DSC): 3.18 ± 0.0956 kcal/mol | Molar enthalpy of transition or fusion (Metastable crystal, DSC): 2.72 ± 0.143 kcal/mol
SMILES: CC(C)[C@@H]1CC[C@@H](C)C[C@H]1O [L-menthol]
